# Measured values from PubChem BioAssay (NCI).
#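 How tested: cells in 96-well plates exposed to compound for 48 hours at five concentrations. The concentration for 50% growth inhibition is given as GI50. TGI is the concentration that stops growth completely.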
# Tests used:
# Assay in all cases: DTP human tumour cell line panel, 48 h
# [1] = test system: ACHN renal
# [2] = test system: CCRF-CEM leukemia
# [3] = test system: COLO 205 colon
# [4] = test system: HL-60(TB) leukemia
# [5] = test system: HOP-62 NSCLC
# [6] = test system: LOX IMVI melanoma
# [7] = test system: NCI-H460 lung
# [8] = test system: OVCAR-5 ovarian
# [9] = test system: SF-295 CNS
# [10] = test system: TK-10 renal
Compound,GI50 [1] [µM],TGI [1] [µM],GI50 [2] [µM],TGI [2] [µM],GI50 [3] [µM],TGI [3] [µM],GI50 [4] [µM],TGI [4] [µM],GI50 [5] [µM],TGI [5] [µM],GI50 [6] [µM],TGI [6] [µM],GI50 [7] [µM],TGI [7] [µM],GI50 [8] [µM],TGI [8] [µM],GI50 [9] [µM],TGI [9] [µM],GI50 [10] [µM],TGI [10] [µM]
CCCCON(OC(=O)c1ccccc1)C(=O)c1ccccc1,> 100,> 100,49.8,> 100,> 100,> 100,88.7,> 100,> 100,> 100,> 100,> 100,> 100,> 100,> 100,> 100,> 100,> 100,> 100,> 100
O=[N+]([O-])c1ccc(S(=O)(=O)Cc2ccccc2)c([N+](=O)[O-])c1,–,2.92,–,0.498,–,3.26,–,4.03,–,9.13,–,3.39,–,9.43,–,27.3,–,33.6,–,3.28
C=C1C(=O)O[C@H]2[C@H]1CC/C(CNC(=O)Cc1c[nH]c3ccccc13)=C\CC[C@@]1(C)O[C@@H]21,1.11,11.4,0.303,1.02,0.313,1.14,0.314,1.02,5.06,19.7,0.355,1.54,12,29.5,10.2,24.2,13,26.6,0.747,2.01
COc1cccc(C2c3cc4c(cc3OC(C)(N3CCCC3)C2C)OCO4)c1OC (stereo not given),–,31.6,–,35.7,–,24.6,–,22.8,–,30.6,–,27,–,28.4,–,43,–,> 100,–,89.1
COc1cc(C(=O)/C=C/c2c(C)n([O-])c3ccc(C)cc3[n+]2=O)cc(OC)c1OC,2.23,5.6,2.83,> 100,2,3.99,2.32,6.15,21.3,47.8,2.11,5.91,14.7,36.9,12.8,29.6,22.8,> 68,3.77,> 34.6
CN(Cc1cnc2nc(N)nc(N)c2n1)c1ccc(C(=O)NC(CCC(=O)O)C(=O)O)cc1C(F)(F)F (stereo not given),–,> 100,–,0.486,–,> 100,–,> 100,–,> 100,–,> 100,–,> 100,–,> 100,–,> 100,–,> 100
FC(F)(F)Oc1cccc(-c2cnc3ccc(-c4ccncc4)nn23)c1,0.447,4.8,2.03,27,1.5,16.7,1.82,4.29,2.17,> 100,1.07,10.2,0.996,> 100,1.96,> 100,1.54,> 100,1.14,9.76
